From ChEMBL document CHEMBL5329208 (RSC Med Chem, 2023)
Converted amounts (≈) assume the structure as drawn. The source made the active and inactive calls. No cut-off for these calls is given here.

What was measured:
CYP3A = CYP3A (Homo sapiens, UniProt P08684+P20815+P24462+Q9HB55); assay: Inhibition of CYP3A (unknown origin) at 10 uM using midazolam as substrate incubated for 10 mins in presence of NADPH by LC-MS/MS analysis relative to control; format: ADME, protein assay; settings: probe midazolam
[1] = Selectivity index, ratio of CC50 for cytotoxicity against human HePAD38 cells assessed as reduction in cell viability to EC50 for antiviral activity against HBV infected human HePAD38 cells assessed as reduction of HBV DNA level; format: toxicity, cell-based; settings: read-out: Ratio CC50/EC50
CYP2C19 = CYP2C19 (Homo sapiens, UniProt P33261); assay: Inhibition of CYP2C19 (unknown origin) at 10 uM using s-mephenytoin as substrate incubated for 10 mins in presence of NADPH by LC-MS/MS analysis relative to control; format: ADME; settings: probe S-mephenytoin
[2] = Cytotoxicity against human HePAD38 cells assessed as reduction in cell viability by CCK-8 assay; format: toxicity, cell-based
[3] = Water solubility of compound in phosphate buffer at pH 7.4 by HPLC analysis; format: physicochemical
Hepatitis B virus [4] = assay: Antiviral activity against HBV infected human HePAD38 cells assessed as reduction of HBV DNA level with compound replacement for every 3 days and measured on day 6 by qPCR analysis; format: functional, organism-based
Hepatitis B virus [5] = assay: Antiviral activity against HBV infected human HePAD38 cells assessed as reduction in intracellular core protein content upto 10 uM incubated for 6 days; format: functional, organism-based; settings: time 6.0 day
[6] = Metabolic stability in human liver microsome assessed as intrinsic clearance preincubated for 10 mins followed by NADPH addition and measured after 60 mins by LC-MS/MS analysis; format: ADME; settings: liver microsomes, time 70 min, read-out: CLH
[7] = Metabolic stability in human liver microsome assessed as parent compound remaining preincubated for 10 mins followed by NADPH addition and measured after 60 mins by LC-MS/MS analysis; format: ADME; settings: liver microsomes, time 70 min, read-out: Stability
[8] = Water solubility of compound in phosphate buffer at pH 7 by HPLC analysis; format: physicochemical
[9] = Metabolic stability in human liver assessed as intrinsic clearance preincubated for 10 mins followed by NADPH addition and measured after 60 mins by LC-MS/MS analysis; format: ADME, tissue-based; settings: time 70 min, read-out: CLH
hERG (KCNH2) [10] = biological target: T1, hERG (KCNH2) (Homo sapiens, UniProt Q12809); assay: Inhibition of hERG expressed in HEK293 cells at 1 uM at holding potential of -80 mV by whole cell patch clamp assay relative to control; format: toxicity, cell-based; settings: HEK293 cells expressing hERG
hERG (KCNH2) [11] = biological target: T1, hERG (KCNH2); assay: Inhibition of hERG expressed in HEK293 cells at 10 uM at holding potential of -80 mV by whole cell patch clamp assay relative to control; format: toxicity, cell-based; settings: HEK293 cells expressing hERG
CYP2D6 = CYP2D6 (Homo sapiens, UniProt P10635); assay: Inhibition of CYP2D6 (unknown origin) at 10 uM using dextromethorphan as substrate incubated for 10 mins in presence of NADPH by LC-MS/MS analysis relative to control; format: ADME; settings: probe dextromethorphan
Hepatitis B virus [12] = assay: Antiviral activity against HBV infected human HePAD38 cells assessed as reduction in intracellular capsid content upto 10 uM incubated for 6 days; format: functional, organism-based; settings: time 6.0 day
CYP2C9 = CYP2C9 (Homo sapiens, UniProt P11712); assay: Inhibition of CYP2C9 (unknown origin) at 10 uM using diclofenac as substrate incubated for 10 mins in presence of NADPH by LC-MS/MS analysis relative to control; format: ADME; settings: probe diclofenac
CYP1A2 = biological target: T2, CYP1A2 (Homo sapiens, UniProt P05177); assay: Inhibition of CYP1A2 (unknown origin) at 10 uM using phenacetin as substrate incubated for 10 mins in presence of NADPH by LC-MS/MS analysis relative to control; format: ADME; settings: probe phenacetin
T2 sequence (P05177 whole entry): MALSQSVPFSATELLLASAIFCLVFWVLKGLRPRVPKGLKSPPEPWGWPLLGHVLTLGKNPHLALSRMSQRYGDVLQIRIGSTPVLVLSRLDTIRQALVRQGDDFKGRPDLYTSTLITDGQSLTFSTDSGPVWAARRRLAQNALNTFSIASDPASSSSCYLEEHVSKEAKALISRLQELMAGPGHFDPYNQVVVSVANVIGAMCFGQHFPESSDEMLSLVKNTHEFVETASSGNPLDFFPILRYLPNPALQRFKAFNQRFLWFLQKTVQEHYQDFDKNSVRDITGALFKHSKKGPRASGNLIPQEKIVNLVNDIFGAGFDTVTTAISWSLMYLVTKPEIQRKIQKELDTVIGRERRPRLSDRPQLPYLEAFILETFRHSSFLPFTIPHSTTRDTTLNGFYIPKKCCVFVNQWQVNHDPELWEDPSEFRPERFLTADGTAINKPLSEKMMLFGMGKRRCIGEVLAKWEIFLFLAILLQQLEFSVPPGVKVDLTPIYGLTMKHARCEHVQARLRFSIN

Hepatitis B virus [13] = assay: Antiviral activity against HBV infected human HePAD38 cells assessed as reduction in intracellular core protein content at 0.016 uM incubated for 6 days by Western blot analysis; format: functional, organism-based; settings: time 6.0 day
[14] = Metabolic stability in human liver microsome assessed as half life preincubated for 10 mins followed by NADPH addition and measured after 60 mins by LC-MS/MS analysis; format: ADME; settings: liver microsomes, time 70 min
[15] = Water solubility of compound in phosphate buffer at pH 2 by HPLC analysis; format: physicochemical
Hepatitis B virus [16] = assay: Antiviral activity against HBV infected human HePAD38 cells assessed as reduction in intracellular core protein content at 0.003 uM incubated for 6 days by Western blot analysis; format: functional, organism-based; settings: time 6.0 day
Hepatitis B virus [17] = assay: Antiviral activity against HBV infected human HePAD38 cells assessed as reduction in intracellular core protein content at 0.08 uM incubated for 6 days by Western blot analysis; format: functional, organism-based; settings: time 6.0 day
Hepatitis B virus [18] = assay: Antiviral activity against HBV infected human HePAD38 cells assessed as reduction in intracellular core protein content incubated for 6 days by Western blot analysis; format: functional, organism-based; settings: dose 1.0 µM, time 6.0 day
Hepatitis B virus [19] = assay: Antiviral activity against HBV infected in human HepG2.2.15 cells assessed as reduction in extracellular HBV DNA level incubated for 8 days by Southern blotting; format: functional, organism-based; settings: HepG2.2.15, 192 h

T1 sequence (Q12809 whole entry): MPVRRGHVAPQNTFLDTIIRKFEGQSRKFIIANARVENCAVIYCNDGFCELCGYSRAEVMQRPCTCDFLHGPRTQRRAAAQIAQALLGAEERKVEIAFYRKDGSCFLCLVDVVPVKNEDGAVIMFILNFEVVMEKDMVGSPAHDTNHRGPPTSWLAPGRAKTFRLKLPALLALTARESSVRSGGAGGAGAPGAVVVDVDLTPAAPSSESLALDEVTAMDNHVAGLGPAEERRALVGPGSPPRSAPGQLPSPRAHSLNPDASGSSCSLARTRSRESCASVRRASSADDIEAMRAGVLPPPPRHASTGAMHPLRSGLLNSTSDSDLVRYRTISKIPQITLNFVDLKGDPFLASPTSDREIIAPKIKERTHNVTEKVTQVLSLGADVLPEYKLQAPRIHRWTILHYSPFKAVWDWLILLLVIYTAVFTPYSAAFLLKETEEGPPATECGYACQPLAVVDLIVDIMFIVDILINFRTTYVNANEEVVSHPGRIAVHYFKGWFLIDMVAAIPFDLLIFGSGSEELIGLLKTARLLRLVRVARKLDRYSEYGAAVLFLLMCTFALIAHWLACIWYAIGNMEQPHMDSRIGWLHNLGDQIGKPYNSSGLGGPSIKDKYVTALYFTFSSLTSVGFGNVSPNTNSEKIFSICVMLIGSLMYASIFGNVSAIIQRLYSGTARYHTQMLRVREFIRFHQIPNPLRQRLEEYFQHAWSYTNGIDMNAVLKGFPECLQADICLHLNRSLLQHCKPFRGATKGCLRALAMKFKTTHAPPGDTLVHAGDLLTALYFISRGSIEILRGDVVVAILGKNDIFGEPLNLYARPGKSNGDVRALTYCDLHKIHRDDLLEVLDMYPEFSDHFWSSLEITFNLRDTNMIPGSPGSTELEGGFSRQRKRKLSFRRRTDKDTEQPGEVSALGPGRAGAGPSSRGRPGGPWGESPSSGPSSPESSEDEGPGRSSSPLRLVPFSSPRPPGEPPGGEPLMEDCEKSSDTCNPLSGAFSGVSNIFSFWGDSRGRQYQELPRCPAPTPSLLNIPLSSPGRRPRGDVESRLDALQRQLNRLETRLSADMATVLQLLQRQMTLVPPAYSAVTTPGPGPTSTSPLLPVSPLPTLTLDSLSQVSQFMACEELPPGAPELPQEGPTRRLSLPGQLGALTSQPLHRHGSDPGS
CYP2D6, sequence (P10635 whole entry): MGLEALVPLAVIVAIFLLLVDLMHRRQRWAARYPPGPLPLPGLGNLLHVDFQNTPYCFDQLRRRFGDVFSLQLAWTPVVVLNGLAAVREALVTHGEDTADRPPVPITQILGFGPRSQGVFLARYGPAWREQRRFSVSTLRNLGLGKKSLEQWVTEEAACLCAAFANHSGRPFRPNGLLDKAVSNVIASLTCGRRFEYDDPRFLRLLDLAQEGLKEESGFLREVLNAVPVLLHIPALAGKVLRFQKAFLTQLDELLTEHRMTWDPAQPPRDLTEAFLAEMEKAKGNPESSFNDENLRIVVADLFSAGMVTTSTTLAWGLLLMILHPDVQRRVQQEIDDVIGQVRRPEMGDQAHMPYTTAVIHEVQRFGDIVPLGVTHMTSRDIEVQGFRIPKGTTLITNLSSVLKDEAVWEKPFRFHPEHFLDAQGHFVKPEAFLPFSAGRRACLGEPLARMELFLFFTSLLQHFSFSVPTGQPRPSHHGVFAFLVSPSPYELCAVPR
CYP2C9, sequence (P11712 whole entry): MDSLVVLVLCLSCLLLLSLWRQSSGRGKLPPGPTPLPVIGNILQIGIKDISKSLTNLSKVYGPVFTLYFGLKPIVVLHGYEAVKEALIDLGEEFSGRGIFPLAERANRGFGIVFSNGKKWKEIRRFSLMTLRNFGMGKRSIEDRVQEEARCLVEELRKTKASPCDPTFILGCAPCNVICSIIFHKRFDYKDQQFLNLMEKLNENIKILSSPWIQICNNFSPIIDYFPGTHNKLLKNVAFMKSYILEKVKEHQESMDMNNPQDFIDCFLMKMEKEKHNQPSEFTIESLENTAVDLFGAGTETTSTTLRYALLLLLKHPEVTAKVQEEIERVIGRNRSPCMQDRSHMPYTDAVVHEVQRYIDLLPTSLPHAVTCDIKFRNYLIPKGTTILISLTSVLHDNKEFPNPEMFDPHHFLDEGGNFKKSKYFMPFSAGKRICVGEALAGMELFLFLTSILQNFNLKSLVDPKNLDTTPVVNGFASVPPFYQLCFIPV
CYP2C19, sequence (P33261 whole entry): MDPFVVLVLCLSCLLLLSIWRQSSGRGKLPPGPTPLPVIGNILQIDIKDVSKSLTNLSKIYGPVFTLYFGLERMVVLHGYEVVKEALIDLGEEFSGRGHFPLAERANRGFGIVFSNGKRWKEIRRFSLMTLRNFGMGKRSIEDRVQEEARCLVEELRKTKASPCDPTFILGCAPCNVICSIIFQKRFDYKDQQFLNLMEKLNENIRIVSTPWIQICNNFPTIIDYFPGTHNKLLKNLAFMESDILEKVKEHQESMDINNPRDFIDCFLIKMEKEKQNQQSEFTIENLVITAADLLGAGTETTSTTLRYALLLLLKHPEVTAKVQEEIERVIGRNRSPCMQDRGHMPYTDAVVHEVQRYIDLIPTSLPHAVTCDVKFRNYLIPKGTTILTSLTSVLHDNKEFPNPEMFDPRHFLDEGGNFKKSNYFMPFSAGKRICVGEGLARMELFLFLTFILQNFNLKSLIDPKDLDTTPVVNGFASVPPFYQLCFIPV

Structure (SMILES) | inhibition at 10 min, 10 µM (CYP3A) [%] | selectivity ratio [1] | inhibition at 10 min, 10 µM (CYP2C19) [%] | CC50 [2] [nM] | solubility [3] [µg/mL] | EC50 (Hepatitis B virus [4]) [nM] | Activity (Hepatitis B virus [5]) | microsomal CLint [6] [µL/min/mg] | remaining at 1 h [7] [%] | solubility [8] [µg/mL] | CLint scaled [9] [mL/min/kg] | inhibition at 1 µM (hERG (KCNH2) [10]) [%] | inhibition at 10 µM (hERG (KCNH2) [11]) [%] | inhibition at 10 min, 10 µM (CYP2D6) [%] | Activity (Hepatitis B virus [12]) | inhibition at 10 min, 10 µM (CYP2C9) [%] | inhibition at 10 min, 10 µM (CYP1A2) [%] | half-life [14] [h] | solubility [15] [µg/mL] | other results
CCOC(=O)C1=C(CN2CCN(C(C(=O)O)c3cccc([N+](=O)[O-])c3)CC2)NC(c2nccs2)=NC1c1ccc(F)cc1Br (stereo unspecified) | 17.1 | 1220 | 15.3 | 29200 | 25.5 (≈ 37.1 µM) | 20 | Active | 12.8 | 68 | 6.85 (≈ 9.96 µM) | 11.5 | 15.7 | 72.7 | 34 | Active | 31.6 | 8.9 | 1.8 | 375 (≈ 545 µM) | Activity (Hepatitis B virus [13]): Active
CCOC(=O)C1=C(CN2CCN(C(/C=C/c3ccccc3)C(=O)O)CC2)NC(c2nccs2)=NC1c1ccc(F)cc1Br (stereo unspecified) | 44.6 | 1060 | 18.1 | 22400 | < 0.58 | 21 | Active | 14.8 | 64.6 | 1.96 (≈ 2.93 µM) | 13.3 | 11.7 | 93.4 | 12.4 | Active | 26.2 | 0 | 1.56 | 361 (≈ 541 µM) | Activity (Hepatitis B virus [16]): Active
CCOC(=O)C1=C(CN2CCOCC2)NC(c2nccs2)=NC1c1ccc(F)cc1Br (stereo unspecified) |  |  |  |  | < 1.19 | 7 |  | 663 | 0.1 | < 1.19 | 596 |  |  |  |  |  |  | 0.035 | 215 (≈ 423 µM) | Activity (Hepatitis B virus [17]): Active; Activity (Hepatitis B virus [18]): Dose-Dependent Effect; EC50 (Hepatitis B virus [19]): 12 nM
